{"source": "paper PMC5666424", "about": "“Marine-Derived 2-Aminoimidazolone Alkaloids. Leucettamine B-Related Polyandrocarpamines Inhibit Mammalian and Protozoan DYRK & CLK Kinases” (Marine Drugs, 2017)", "assay_in_all_cases": "KinomeScan", "assay_type_in_all_cases": "binding", "conditions_in_all_cases": "1 μM", "key": {"IKK-alpha": {"target": "T1, IKK-alpha (Homo sapiens, UniProt O15111)", "T1 construct": "purchased DiscoverX (KINOMEscan)"}, "CDK2": {"target": "T2, CDK2 (Homo sapiens, UniProt P24941)", "T2 construct": "purchased DiscoverX (KINOMEscan)"}, "MLK2": {"target": "T3, MLK2 (Homo sapiens, UniProt Q02779)", "T3 construct": "purchased DiscoverX (KINOMEscan)"}, "TNK2": {"target": "T4, TNK2 (Homo sapiens, UniProt Q07912)", "T4 construct": "purchased DiscoverX (KINOMEscan)"}, "MRCKA": {"target": "T5, MRCKA (Homo sapiens, UniProt Q5VT25)", "T5 construct": "purchased DiscoverX (KINOMEscan)"}, "NEK5": {"target": "T6, NEK5 (Homo sapiens, UniProt Q6P3R8)", "T6 construct": "purchased DiscoverX (KINOMEscan)", "T6 sequence (Q6P3R8 whole entry)": "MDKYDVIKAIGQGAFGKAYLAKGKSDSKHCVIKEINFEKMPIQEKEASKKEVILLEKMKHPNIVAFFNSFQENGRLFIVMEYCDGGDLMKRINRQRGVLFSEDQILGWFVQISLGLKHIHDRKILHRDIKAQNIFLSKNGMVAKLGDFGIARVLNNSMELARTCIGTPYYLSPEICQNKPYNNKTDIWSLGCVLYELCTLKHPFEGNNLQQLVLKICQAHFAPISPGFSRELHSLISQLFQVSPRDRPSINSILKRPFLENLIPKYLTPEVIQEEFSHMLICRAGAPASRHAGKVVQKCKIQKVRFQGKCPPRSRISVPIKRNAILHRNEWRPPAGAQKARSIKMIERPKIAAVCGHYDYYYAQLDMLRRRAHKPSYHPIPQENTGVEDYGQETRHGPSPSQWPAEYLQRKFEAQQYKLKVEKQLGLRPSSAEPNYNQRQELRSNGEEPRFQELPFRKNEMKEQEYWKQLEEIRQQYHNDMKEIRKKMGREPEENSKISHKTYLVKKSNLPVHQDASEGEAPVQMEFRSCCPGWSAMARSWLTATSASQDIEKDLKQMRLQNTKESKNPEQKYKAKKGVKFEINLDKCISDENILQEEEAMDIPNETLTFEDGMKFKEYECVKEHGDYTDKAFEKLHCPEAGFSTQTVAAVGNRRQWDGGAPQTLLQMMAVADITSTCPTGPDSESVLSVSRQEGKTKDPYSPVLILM"}, "CDKL5": {"target": "T7, CDKL5 (Homo sapiens, UniProt O76039)", "T7 construct": "purchased DiscoverX (KINOMEscan)"}, "AKT1": {"target": "T8, AKT1 (Homo sapiens, UniProt P31749)", "T8 construct": "purchased DiscoverX (KINOMEscan)"}, "MEK6": {"target": "T9, MEK6 (Homo sapiens, UniProt P52564)", "T9 construct": "purchased DiscoverX (KINOMEscan)"}, "IRAK4": {"target": "T10, IRAK4 (Homo sapiens, UniProt Q9NWZ3)", "T10 construct": "purchased DiscoverX (KINOMEscan)"}, "SLK": {"target": "T11, SLK (Homo sapiens, UniProt Q9H2G2)", "T11 construct": "purchased DiscoverX (KINOMEscan)"}, "TIE2": {"target": "T12, TIE2 (Homo sapiens, UniProt Q02763)", "T12 construct": "purchased DiscoverX (KINOMEscan)"}, "EPHA3": {"target": "T13, EPHA3 (Homo sapiens, UniProt P29320)", "T13 construct": "purchased DiscoverX (KINOMEscan)", "T13 sequence (P29320 21-983)": "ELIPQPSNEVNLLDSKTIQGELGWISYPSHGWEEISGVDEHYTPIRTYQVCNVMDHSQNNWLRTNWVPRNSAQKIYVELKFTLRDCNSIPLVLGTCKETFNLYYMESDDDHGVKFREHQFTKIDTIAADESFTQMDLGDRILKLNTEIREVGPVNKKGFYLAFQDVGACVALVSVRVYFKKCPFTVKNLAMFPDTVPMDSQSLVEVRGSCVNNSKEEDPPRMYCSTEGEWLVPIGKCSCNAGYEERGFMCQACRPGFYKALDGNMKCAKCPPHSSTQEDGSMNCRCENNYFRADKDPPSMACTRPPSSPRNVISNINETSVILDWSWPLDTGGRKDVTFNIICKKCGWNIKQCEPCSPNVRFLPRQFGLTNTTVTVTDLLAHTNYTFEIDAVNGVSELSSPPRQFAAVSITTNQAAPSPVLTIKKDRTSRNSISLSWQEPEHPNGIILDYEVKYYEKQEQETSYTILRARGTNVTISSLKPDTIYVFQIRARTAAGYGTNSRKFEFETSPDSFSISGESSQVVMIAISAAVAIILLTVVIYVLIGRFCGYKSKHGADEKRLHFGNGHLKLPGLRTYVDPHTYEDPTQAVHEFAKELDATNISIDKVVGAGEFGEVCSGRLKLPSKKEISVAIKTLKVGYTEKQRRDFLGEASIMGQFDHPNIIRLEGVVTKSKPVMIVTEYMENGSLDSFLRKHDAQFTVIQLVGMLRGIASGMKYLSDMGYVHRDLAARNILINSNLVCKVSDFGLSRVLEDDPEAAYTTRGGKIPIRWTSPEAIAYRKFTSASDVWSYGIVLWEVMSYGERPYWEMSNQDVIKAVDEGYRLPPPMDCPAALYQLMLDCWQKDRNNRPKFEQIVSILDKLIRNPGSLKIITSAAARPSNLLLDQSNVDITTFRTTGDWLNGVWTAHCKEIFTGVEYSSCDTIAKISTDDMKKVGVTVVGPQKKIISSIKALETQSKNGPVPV"}, "TRKC": {"target": "T14, TRKC (Homo sapiens, UniProt Q16288)", "T14 construct": "purchased DiscoverX (KINOMEscan)"}, "STK16": {"target": "T15, STK16 (Homo sapiens, UniProt O75716)", "T15 construct": "purchased DiscoverX (KINOMEscan)"}, "TNIK": {"target": "T16, TNIK (Homo sapiens, UniProt Q9UKE5)", "T16 construct": "purchased DiscoverX (KINOMEscan)", "T16 sequence (Q9UKE5 whole entry)": "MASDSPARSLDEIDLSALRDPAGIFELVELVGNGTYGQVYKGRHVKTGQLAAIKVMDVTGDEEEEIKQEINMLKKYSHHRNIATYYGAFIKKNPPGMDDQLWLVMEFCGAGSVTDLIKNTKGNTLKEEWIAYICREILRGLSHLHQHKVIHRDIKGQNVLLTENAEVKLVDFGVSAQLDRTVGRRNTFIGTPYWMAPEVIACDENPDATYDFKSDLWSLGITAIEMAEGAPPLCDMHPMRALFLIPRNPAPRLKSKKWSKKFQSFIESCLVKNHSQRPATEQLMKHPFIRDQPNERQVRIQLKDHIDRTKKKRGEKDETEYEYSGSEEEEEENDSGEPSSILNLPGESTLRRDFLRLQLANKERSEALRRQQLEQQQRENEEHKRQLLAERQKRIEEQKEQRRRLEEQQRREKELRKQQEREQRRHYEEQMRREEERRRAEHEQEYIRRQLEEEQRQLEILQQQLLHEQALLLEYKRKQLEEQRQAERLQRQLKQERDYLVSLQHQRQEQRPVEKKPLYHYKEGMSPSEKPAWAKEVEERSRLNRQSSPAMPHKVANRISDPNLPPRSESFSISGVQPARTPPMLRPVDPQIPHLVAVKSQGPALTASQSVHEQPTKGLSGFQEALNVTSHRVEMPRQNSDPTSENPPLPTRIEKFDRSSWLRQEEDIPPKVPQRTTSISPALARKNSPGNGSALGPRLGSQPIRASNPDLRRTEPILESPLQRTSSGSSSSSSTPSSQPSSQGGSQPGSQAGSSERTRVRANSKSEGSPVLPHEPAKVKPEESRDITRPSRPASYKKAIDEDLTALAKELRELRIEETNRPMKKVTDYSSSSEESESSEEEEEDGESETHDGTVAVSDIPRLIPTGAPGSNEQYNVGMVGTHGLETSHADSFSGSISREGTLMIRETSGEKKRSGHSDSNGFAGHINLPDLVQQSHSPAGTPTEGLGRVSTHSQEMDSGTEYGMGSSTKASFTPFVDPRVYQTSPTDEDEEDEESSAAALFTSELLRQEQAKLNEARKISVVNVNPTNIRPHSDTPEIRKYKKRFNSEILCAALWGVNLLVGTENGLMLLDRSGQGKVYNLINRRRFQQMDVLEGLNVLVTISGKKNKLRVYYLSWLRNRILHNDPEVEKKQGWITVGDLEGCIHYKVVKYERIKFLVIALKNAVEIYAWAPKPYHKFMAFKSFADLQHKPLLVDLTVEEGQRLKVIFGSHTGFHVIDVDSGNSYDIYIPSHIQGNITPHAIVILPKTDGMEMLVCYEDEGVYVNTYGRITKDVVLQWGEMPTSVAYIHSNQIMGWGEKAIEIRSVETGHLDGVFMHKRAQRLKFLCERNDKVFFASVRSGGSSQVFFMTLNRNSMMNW"}, "DYRK2": {"target": "T17, DYRK2 (Homo sapiens, UniProt Q92630)", "T17 sequence (Q92630 1-601)": "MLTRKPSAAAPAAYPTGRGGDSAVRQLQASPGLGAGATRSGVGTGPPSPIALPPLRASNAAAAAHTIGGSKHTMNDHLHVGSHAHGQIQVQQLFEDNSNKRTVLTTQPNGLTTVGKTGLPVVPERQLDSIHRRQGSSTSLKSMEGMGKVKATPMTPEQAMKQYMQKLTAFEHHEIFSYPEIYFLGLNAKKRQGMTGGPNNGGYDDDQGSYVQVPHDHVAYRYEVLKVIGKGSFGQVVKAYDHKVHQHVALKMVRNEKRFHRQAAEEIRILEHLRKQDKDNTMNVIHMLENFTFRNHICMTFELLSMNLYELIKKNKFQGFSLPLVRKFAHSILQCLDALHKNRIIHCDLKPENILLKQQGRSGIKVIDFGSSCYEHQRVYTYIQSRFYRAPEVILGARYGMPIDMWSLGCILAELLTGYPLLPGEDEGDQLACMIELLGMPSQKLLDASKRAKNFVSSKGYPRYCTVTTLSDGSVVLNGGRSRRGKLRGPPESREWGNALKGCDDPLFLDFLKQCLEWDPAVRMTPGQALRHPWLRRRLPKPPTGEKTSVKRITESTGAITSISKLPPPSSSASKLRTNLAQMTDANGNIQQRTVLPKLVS"}, "MEK4": {"target": "T18, MEK4 (Homo sapiens, UniProt P45985)", "T18 construct": "purchased DiscoverX (KINOMEscan)"}, "BIKE": {"target": "T19, BIKE (Homo sapiens, UniProt Q9NSY1)", "T19 construct": "purchased DiscoverX (KINOMEscan)"}, "STK36": {"target": "T20, STK36 (Homo sapiens, UniProt Q9NRP7)", "T20 construct": "purchased DiscoverX (KINOMEscan)", "T20 sequence (Q9NRP7 whole entry)": "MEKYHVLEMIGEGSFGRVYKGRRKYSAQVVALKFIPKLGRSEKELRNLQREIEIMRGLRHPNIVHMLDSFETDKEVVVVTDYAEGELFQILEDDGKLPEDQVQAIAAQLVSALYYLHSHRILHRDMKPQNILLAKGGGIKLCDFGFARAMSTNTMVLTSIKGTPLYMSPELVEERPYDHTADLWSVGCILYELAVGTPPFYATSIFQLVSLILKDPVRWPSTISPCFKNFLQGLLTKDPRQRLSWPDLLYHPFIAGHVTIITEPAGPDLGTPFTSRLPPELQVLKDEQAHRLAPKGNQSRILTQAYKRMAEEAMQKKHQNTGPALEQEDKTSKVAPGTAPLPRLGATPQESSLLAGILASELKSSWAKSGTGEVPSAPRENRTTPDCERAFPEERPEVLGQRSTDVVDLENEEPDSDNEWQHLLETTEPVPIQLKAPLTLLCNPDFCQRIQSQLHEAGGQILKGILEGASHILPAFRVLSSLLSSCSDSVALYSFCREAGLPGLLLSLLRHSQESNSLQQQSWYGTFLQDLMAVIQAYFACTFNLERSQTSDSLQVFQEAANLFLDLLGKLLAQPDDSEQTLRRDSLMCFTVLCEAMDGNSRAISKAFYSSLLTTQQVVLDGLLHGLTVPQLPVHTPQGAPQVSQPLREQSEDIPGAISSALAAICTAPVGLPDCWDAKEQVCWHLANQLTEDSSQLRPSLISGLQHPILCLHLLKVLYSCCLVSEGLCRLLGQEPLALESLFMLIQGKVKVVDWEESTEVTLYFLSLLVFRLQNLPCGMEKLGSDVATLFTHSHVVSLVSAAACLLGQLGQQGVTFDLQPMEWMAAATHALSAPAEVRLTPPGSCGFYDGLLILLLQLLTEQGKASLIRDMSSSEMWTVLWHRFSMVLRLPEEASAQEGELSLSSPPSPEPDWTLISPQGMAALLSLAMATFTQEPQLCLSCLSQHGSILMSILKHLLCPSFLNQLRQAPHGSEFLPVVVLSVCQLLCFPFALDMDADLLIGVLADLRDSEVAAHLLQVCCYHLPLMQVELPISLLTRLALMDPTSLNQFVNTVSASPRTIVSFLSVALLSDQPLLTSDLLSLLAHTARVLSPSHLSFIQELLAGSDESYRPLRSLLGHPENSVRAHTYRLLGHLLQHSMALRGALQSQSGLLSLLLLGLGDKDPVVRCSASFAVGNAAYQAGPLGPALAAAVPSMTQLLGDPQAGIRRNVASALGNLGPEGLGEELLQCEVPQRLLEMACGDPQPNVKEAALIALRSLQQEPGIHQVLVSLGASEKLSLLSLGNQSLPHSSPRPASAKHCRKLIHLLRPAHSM"}, "MERTK": {"target": "T21, MERTK (Homo sapiens, UniProt Q12866)", "T21 construct": "purchased DiscoverX (KINOMEscan)"}, "CLK3": {"target": "T22, CLK3 (Homo sapiens, UniProt P49761)", "T22 construct": "purchased DiscoverX (KINOMEscan)"}, "GRK1": {"target": "T23, GRK1 (Homo sapiens, UniProt Q15835)", "T23 construct": "purchased DiscoverX (KINOMEscan)"}, "DYRK1A": {"target": "DYRK1A (Homo sapiens, UniProt Q13627)"}, "MKNK2": {"target": "T24, MKNK2 (Homo sapiens, UniProt Q9HBH9)", "T24 construct": "purchased DiscoverX (KINOMEscan)", "T24 sequence (Q9HBH9 whole entry)": "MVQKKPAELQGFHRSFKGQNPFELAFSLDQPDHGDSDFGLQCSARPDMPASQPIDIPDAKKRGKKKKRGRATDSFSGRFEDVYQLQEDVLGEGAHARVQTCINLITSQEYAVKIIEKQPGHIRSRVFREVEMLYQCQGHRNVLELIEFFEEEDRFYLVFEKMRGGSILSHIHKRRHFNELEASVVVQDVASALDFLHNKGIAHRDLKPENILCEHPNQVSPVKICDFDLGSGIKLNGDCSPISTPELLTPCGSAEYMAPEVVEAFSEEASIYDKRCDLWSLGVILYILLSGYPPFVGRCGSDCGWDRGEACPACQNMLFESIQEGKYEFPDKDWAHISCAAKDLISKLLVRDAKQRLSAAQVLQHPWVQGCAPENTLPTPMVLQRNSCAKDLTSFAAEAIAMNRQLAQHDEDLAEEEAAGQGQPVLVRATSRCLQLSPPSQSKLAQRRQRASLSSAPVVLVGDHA"}, "CSNK1A1": {"target": "T25, CSNK1A1 (Homo sapiens, UniProt P48729)", "T25 construct": "purchased DiscoverX (KINOMEscan)"}, "TNNI3K": {"target": "T26, TNNI3K (Homo sapiens, UniProt Q59H18)", "T26 construct": "purchased DiscoverX (KINOMEscan)"}, "TAOK2": {"target": "T27, TAOK2 (Homo sapiens, UniProt Q9UL54)", "T27 construct": "purchased DiscoverX (KINOMEscan)"}, "HPK1": {"target": "T28, HPK1 (Homo sapiens, UniProt Q92918)", "T28 construct": "purchased DiscoverX (KINOMEscan)"}, "ERK4": {"target": "T29, ERK4 (Homo sapiens, UniProt P31152)", "T29 construct": "purchased DiscoverX (KINOMEscan)"}}, "data": [{"compound": "COc1cc(/C=C2\\N=C(N)NC2=O)ccc1O", "note": "[Polyandrocarpamine A]", "values": [{"measurement": "Score", "setting": "IKK-alpha", "value": 100}, {"measurement": "Score", "setting": "CDK2", "value": 91}, {"measurement": "Score", "setting": "MLK2", "value": 100}, {"measurement": "Score", "setting": "TNK2", "value": 100}, {"measurement": "Score", "setting": "MRCKA", "value": 100}, {"measurement": "Score", "setting": "NEK5", "value": 95}, {"measurement": "Score", "setting": "CDKL5", "value": 100}, {"measurement": "Score", "setting": "AKT1", "value": 100}, {"measurement": "Score", "setting": "MEK6", "value": 100}, {"measurement": "Score", "setting": "IRAK4", "value": 46}, {"measurement": "Score", "setting": "SLK", "value": 100}, {"measurement": "Score", "setting": "TIE2", "value": 98}, {"measurement": "Score", "setting": "EPHA3", "value": 87}, {"measurement": "Score", "setting": "TRKC", "value": 82}, {"measurement": "Score", "setting": "STK16", "value": 100}, {"measurement": "Score", "setting": "TNIK", "value": 100}, {"measurement": "Score", "setting": "DYRK2", "value": 24}, {"measurement": "Score", "setting": "MEK4", "value": 100}, {"measurement": "Score", "setting": "BIKE", "value": 70}, {"measurement": "Score", "setting": "STK36", "value": 96}, {"measurement": "Score", "setting": "MERTK", "value": 100}, {"measurement": "Score", "setting": "CLK3", "value": 69}, {"measurement": "Score", "setting": "GRK1", "value": 100}, {"measurement": "Score", "setting": "DYRK1A", "value": 3}, {"measurement": "Score", "setting": "MKNK2", "value": 100}, {"measurement": "Score", "setting": "CSNK1A1", "value": 100}, {"measurement": "Score", "setting": "TNNI3K", "value": 98}, {"measurement": "Score", "setting": "TAOK2", "value": 100}, {"measurement": "Score", "setting": "HPK1", "value": 100}, {"measurement": "Score", "setting": "ERK4", "value": 100}]}]}
